ChEMBL document CHEMBL1128025, “Synthesis and evaluation of pyridyl analogs of L-735,524: Potent HIV-1 protease inhibitors” (Bioorg Med Chem Lett, 1994)

Tests used:
[1] = Concentration maxima after oral dosing in dogs; type: ADME, organism-based, Canis lupus familiaris; parameters: route oral; settings: dog, in vivo
[2] = tested on: Human immunodeficiency virus; assay: Compound was tested for cellulr inhibition of HIV was determined; type: functional; settings: Human immunodeficiency virus 1
[3] = molecular target: Human immunodeficiency virus type 1 protease (Human immunodeficiency virus 1, UniProt Q72874); assay: Inhibition of Human Immunodeficiency virus-1 protease
[4] = tested on: Human immunodeficiency virus; assay: Compound was tested for cellulr inhibition of HIV was determined; Range is 6-12; type: functional; settings: Human immunodeficiency virus 1
[5] = tested on: Human immunodeficiency virus; assay: Compound was tested for cellulr inhibition of HIV was determined; Range is 12-25; type: functional; settings: Human immunodeficiency virus 1
[6] = tested on: Human immunodeficiency virus; assay: Compound was tested for cellulr inhibition of HIV was determined; Range is 25-50; type: functional; settings: Human immunodeficiency virus 1

| SMILES | Cmax [1] | IC95 [2] | IC50 [3] | IC95 [4] | IC95 [5] | IC95 [6] |
| --- | --- | --- | --- | --- | --- | --- |
| CC(C)(C)NC(=O)[C@@H]1CN(Cc2cccnc2)CCN1C[C@@H](O)C[C@@H](Cc1ccncc1)C(=O)N[C@H]1c2ccccc2C[C@H]1O | 414 nM | > 200 nM | 1.7 nM | – | – | – |
| CC(C)(C)NC(=O)[C@@H]1CN(Cc2cc3sccc3s2)CCN1C[C@@H](O)C[C@@H](Cc1cccnc1)C(=O)N[C@H]1c2ccccc2C[C@H]1O | 3290 nM | – | 0.09 nM | 12 nM | – | – |
| CC(C)(C)NC(=O)[C@@H]1CN(Cc2cccnc2)CCN1C[C@@H](O)C[C@@H](Cc1cccnc1)C(=O)N[C@H]1c2ccccc2C[C@H]1O | – | > 200 nM | 1.7 nM | – | – | – |
| CC(C)(C)NC(=O)[C@@H]1CN(Cc2c(F)cccc2F)CCN1C[C@@H](O)C[C@@H](Cc1cccnc1)C(=O)N[C@H]1c2ccccc2C[C@H]1O | 1010 nM | 12.2 nM | 0.14 nM | – | – | – |
| CC(C)(C)NC(=O)[C@@H]1CN(Cc2cc(Br)cs2)CCN1C[C@@H](O)C[C@@H](Cc1ccncc1)C(=O)N[C@H]1c2ccccc2C[C@H]1O | 2200 nM | – | 0.11 nM | – | 25 nM | – |
| CC(C)(C)NC(=O)[C@@H]1CN(Cc2c(F)cccc2F)CCN1C[C@@H](O)C[C@@H](Cc1ccncc1)C(=O)N[C@H]1c2ccccc2C[C@H]1O | 8060 nM | – | 0.48 nM | – | – | 50 nM |
| CC(C)(C)NC(=O)[C@@H]1CN(Cc2cc(Br)cs2)CCN1C[C@@H](O)C[C@@H](Cc1cccnc1)C(=O)N[C@H]1c2ccccc2C[C@H]1O | 633 nM | 25 nM | 0.03 nM | – | – | – |
| CC(C)(C)NC(=O)[C@@H]1CN(S(=O)(=O)c2cccc3cccnc23)CCN1C[C@@H](O)C[C@@H](Cc1ccncc1)C(=O)N[C@H]1c2ccccc2C[C@H]1O | – | 200 nM | 0.015 nM | – | – | – |
| CC(C)(C)NC(=O)[C@@H]1CN(Cc2cc3ccsc3s2)CCN1C[C@@H](O)C[C@@H](Cc1ccncc1)C(=O)N[C@H]1c2ccccc2C[C@H]1O | 1730 nM | – | 0.06 nM | 12 nM | – | – |
| CC(C)(C)NC(=O)[C@@H]1CN(S(=O)(=O)c2cccc3cccnc23)CCN1C[C@@H](O)C[C@@H](Cc1cccnc1)C(=O)N[C@H]1c2ccccc2C[C@H]1O | – | > 200 nM | 0.03 nM | – | – | – |
| CC(C)(C)NC(=O)[C@@H]1CN(Cc2cc3ccsc3s2)CCN1C[C@@H](O)C[C@@H](Cc1cccnc1)C(=O)N[C@H]1c2ccccc2C[C@H]1O | 7290 nM | – | 0.12 nM | 12 nM | – | – |
| CC(C)(C)NC(=O)[C@@H]1CN(Cc2cc3sccc3s2)CCN1C[C@@H](O)C[C@@H](Cc1ccncc1)C(=O)N[C@H]1c2ccccc2C[C@H]1O | 1590 nM | – | 0.05 nM | 12 nM | – | – |
| CC(C)(C)NC(=O)[C@@H]1CN(Cc2cccnc2)CCN1C[C@@H](O)C[C@@H](Cc1ccccc1)C(=O)N[C@H]1c2ccccc2C[C@H]1O [INDINAVIR] | – | 50 nM | – | – | – | – |
